Values quoted from earlier work, collected in patent US20240024221A1, “COMPOSITION FOR BRIGHTENING AND/OR WHITENING KERATIN MATERIALS” (L'OREAL, priority 2020, published 2024).

Settings: 25° C.; raw material table

| Molecule | HLB |
| --- | --- |
| CCCCCCCCCCCC[N+](C)(C)CC(=O)[O-] [LAURYL BETAINE] | 15 |
| CCCCCCCCCCC(CCCCCCCC)CO[C@@H]1OC[C@@H](O)[C@H](O)[C@H]1O (some centres unmarked) [OCTYLDODECYL XYLOSIDE] | 7.3 |
| POLYGLYCERYL-2 OLEATE | 8 |
| POLYSORBATE 20 | 18.6 |
| SODIUM DILAURAMIDOGLUTAMIDE LYSINE | 12.6 |
